Assay results published in PubChem BioAssay AID588838 (Broad Institute, 2011).

Each compound was assayed on P. falciparum Dd2 in RBCs, SYBR green growth (assay: growth inhibition of P. falciparum blood stages, dose response, PfHsp90 inhibitor project, Dd2 strain, red blood cells, dry powder (AID 588838)).

Going from `COc1ccc2c(c1)C=C(C(=O)NCc1ccc(Cl)cc1)CO2` to `O=S(=O)(NC1CC2CCC1C2)c1ccc(Cl)cc1` (stereo unspecified), the AC50 rises from 43.9 µM to 98.5 µM (2.2-fold).

Compared with `O=S(=O)(NC1CCCCCC1)c1ccc(Br)s1`, `O=S(=O)(/C=C/c1ccccc1)NC1CCCCCCC1` is 4.1-fold higher in AC50: 16.3 µM for the first, 66.1 µM for the second.

First: Cc1ccc(OCc2n[nH]c(=S)n2C2CCCCC2)cc1
Second: O=C(CSCC(=O)N1CCCCC1)Nc1nc(-c2ccc(Cl)s2)cs1
The AC50 of the first is 1.5-fold higher: 60.6 µM for the first, 40 µM for the second.
